# Experimental data reported in article PMC9977887, “Crocodile defensin (CpoBD13) antifungal activity via pH-dependent phospholipid targeting and membrane disruption” (Nature Communications, 2023).
# Where two headings read alike, the source gives them in different places.
# Columns and labels:
# [1] = Calcein-encapsulated liposome lysis assay; format: biochemical
# Description: (§1) Liposomes were prepared using natural chicken egg L-α-phophatidylcholine and L-α-phosphatidic acid dissolved in chloroform (Avanti Polar Lipids), and liposome pulldowns (at pH 7.4) and calcein-encapsulated liposome lysis assays were performed as previously described. For liposome pulldowns performed at pH 5.5, the same protocol was used with minor variations. The desiccated lipid films were resuspended in 20 mM MES pH 7.4 and were washed in the same buffer during the centrifugation process. After the final wash step, the liposome pellets were resuspended in 20 mM MES pH 5.5 and incubated with CpoBD13 or mutants thereof (also prepared in the same acidic buffer).
# [2] = tested on: C. albicans ATCC 10231; assay: Fungal growth inhibition assay; format: cell-based, Candida albicans; conditions: 24 h; for IC50: unit not in table, µM, read-out: IC50
# Description: For fungal growth assays, overnight cultures of C. albicans ATCC 10231 cells (yeast peptone dextrose broth, 30°C, shaking at 160 rpm) were pelleted (2000 g, 5 min), washed once in 0.5× potato dextrose broth (BD Biosciences, Franklin Lakes, NJ) and finally resuspended in the same media. Cells were seeded onto a 96-well plate (400 cells, 50 µL) and treated with an equal volume of varying concentrations of defensin in 0.5× potato dextrose broth. After incubating the samples (24 h, 30 °C), the plates were shaken to distribute the cells and growth was determined by performing a 9-well scan (600 nm) using a Spectramax M5e microplate reader (Molecular Devices, San Jose, CA). For assays testing defensin salt tolerance, C. albicans cells were instead resuspended in 1x potato dextrose broth and treated with an equal volume of CpoBD13 + NaCl solution at their intended concentrations. Propidium iodide (PI) uptake assays were performed by preparing the cells as per the standard growth inhibition assay however they were instead seeded onto a U-bottom 96-well plate (50,000 cells, 25 µL). […] For PI uptake experiments performed at a specific pH, the same method was followed with the exception that cells were resuspended in 1× potato dextrose broth while defensin titrations were diluted in 40 mM MES buffer at the intended pH. An example PI uptake gating strategy is presented in Supplementary Fig. 1d.
# [3] = Liposome pulldown; format: binding; conditions: 1 µg defensin; for Fraction of total protein (%), bound fraction: pH 5.5 (20 mM MES); for Fraction of total protein (%), Bound: pH 7.4
# Description: as §1
# [4] = target: PC:PA liposomes (95:5 molar ratio PC:PA); assay: liposome pulldown; conditions: 1 µg peptide, 95:5 molar ratio PC:PA, read off a plot
# [5] = target: PC only liposomes; assay: liposome pulldown; conditions: 1 µg peptide, PC only, read off a plot
# [6] = target: the molecule itself; assay: cross-linking; BS(PEG)5 cross-linker; CpoBD13 (1 mg/mL stock) with 0 or 23 µM phosphatidic acid (08:0 PA; 0 or 0.092 mM stock), 20 mM HEPES pH 7.1, 30 min; SDS-PAGE and colloidal Coomassie
# [7] = target: the molecule itself; assay: cross-linking; BS(PEG)5 cross-linker; CpoBD13 or mutant (1 mg/mL stock) with 115 µM phosphatidic acid (08:0 PA; 0.46 mM stock), 20 mM HEPES pH 7.1, 30 min; SDS-PAGE and colloidal Coomassie
# [8] = PC:PA 95:5 liposomes, replicate 1
# [9] = PC:PA 95:5 liposomes, replicate 2
# [10] = PC:PA 95:5 liposomes, replicate 3
molecule,measurement,setting,value
CpoBD13 (H35A): CpoBD13 point mutant H35A,Lysis (%),"[1]; PC liposomes, replicate 1",59.2077%
same,Lysis (%),"[1]; PC liposomes, replicate 2",47.882%
same,Lysis (%),"[1]; PC liposomes, replicate 3",48.469%
same,Lysis (%),"[1]; PC:PA liposomes, replicate 1",63.0445%
same,Lysis (%),"[1]; PC:PA liposomes, replicate 2",68.1197%
same,Lysis (%),"[1]; PC:PA liposomes, replicate 3",58.6174%
same,fungal growth inhibition activity compared to the wild type,"[2]; IC50 comparison, two-tailed unpaired t test",No significant differences
same,IC50,[2]; Replicate 1,4.14 µM
same,IC50,[2]; Replicate 2,4.17 µM
same,IC50,[2]; Replicate 3,4.2 µM
same,"Fraction of total protein (%), bound fraction","[3]; PC only liposomes, replicate 1",23.8871%
same,"Fraction of total protein (%), bound fraction","[3]; PC only liposomes, replicate 2",10.4017%
same,"Fraction of total protein (%), bound fraction","[3]; PC only liposomes, replicate 3",20.2373%
same,"Fraction of total protein (%), Bound","[3]; PC only liposomes, replicate 1",14.047%
same,"Fraction of total protein (%), Bound","[3]; PC only liposomes, replicate 2",12.1176%
same,"Fraction of total protein (%), Bound","[3]; PC only liposomes, replicate 3",23.9918%
same,"Fraction of total protein (%), bound fraction",[3]; [8],106.585%
same,"Fraction of total protein (%), bound fraction",[3]; [9],65.0801%
same,"Fraction of total protein (%), bound fraction",[3]; [10],97.4485%
same,"Fraction of total protein (%), Bound",[3]; [8],42.5181%
same,"Fraction of total protein (%), Bound",[3]; [9],53.6354%
same,"Fraction of total protein (%), Bound",[3]; [10],32.306%
Crocodylus porosus β-defensin 13 (CpoBD13) (from UniProt A0A7G6KN55) H21A,response (% (fraction of total)),"[4]; pH 5.5, parent: est. 88",69
same,response (% (fraction of total)),"[4]; pH 7.4, parent: est. 43",38
same,response (% (fraction of total)),"[5]; pH 5.5, parent: est. 20",15
same,response (% (fraction of total)),"[5]; pH 7.4, parent: est. 15",23
Crocodylus porosus β-defensin 13 (CpoBD13) (from UniProt A0A7G6KN55) H33A,response (% (fraction of total)),"[4]; pH 5.5, parent: est. 88",78
same,response (% (fraction of total)),"[4]; pH 7.4, parent: est. 43",38
same,response (% (fraction of total)),"[5]; pH 5.5, parent: est. 20",20
same,response (% (fraction of total)),"[5]; pH 7.4, parent: est. 15",18
Crocodylus porosus β-defensin 13 (CpoBD13) (from UniProt A0A7G6KN55) H35A,response (% (fraction of total)),"[4]; pH 5.5, parent: est. 88",90
same,response (% (fraction of total)),"[4]; pH 7.4, parent: est. 43",42
same,response (% (fraction of total)),"[5]; pH 5.5, parent: est. 20",18
same,response (% (fraction of total)),"[5]; pH 7.4, parent: est. 15",15
Crocodylus porosus β-defensin 13 (CpoBD13) (from UniProt A0A7G6KN55) R9A,response (% (fraction of total)),"[4]; pH 5.5, parent: est. 88",80
same,response (% (fraction of total)),"[4]; pH 7.4, parent: est. 43",17
same,response (% (fraction of total)),"[5]; pH 5.5, parent: est. 20",34
same,response (% (fraction of total)),"[5]; pH 7.4, parent: est. 15",10
Crocodylus porosus β-defensin 13 (CpoBD13) (from UniProt A0A7G6KN55) R17A,response (% (fraction of total)),"[4]; pH 5.5, parent: est. 88",87
same,response (% (fraction of total)),"[4]; pH 7.4, parent: est. 43",26
same,response (% (fraction of total)),"[5]; pH 5.5, parent: est. 20",22
same,response (% (fraction of total)),"[5]; pH 7.4, parent: est. 15",13
"NGSYYSTLQCRNNHGHCRRLCFHGEQWIGNCNGRHQHCCK (peptide, UniProt A0A7G6KN55 22-61, looked up, Crocodylus porosus β-defensin 13, mature defensin domain (nucleotides 142-255 of XM_019537183.1, limits set with SignalP); 114 nucleotides would give 38 residues; Three disulphide bonds; also called wild type CpoBD13; saltwater crocodile defensin; source: Pichia pastoris (pPIC9 vector), purified by cation exchange chromatography) [Crocodylus porosus β-defensin 13 (CpoBD13)]",stoichiometry N,[6],2
same,stoichiometry N,[7],≤ 5
